Assay results reported in patent US20230382904A1, “SUBSTITUTED 4-([1,2,4]TRIAZOLO[1,5-a]PYRIDIN-6-YL)THIOPHENE-2-CARBOXAMIDE DERIVATIVES AND USE THEREOF” (The Johns Hopkins University, priority 2020, published 2023).

What was measured:
[1] = biological target: LZK (Homo sapiens (Human), UniProt O43283); test: LZK biochemical assay (TR-FRET, MKK7 phosphorylation)
Description: LZK assay is a biochemical assay format designed to screen for inhibitors of LZK. Enzymatic activity of LZK was measured by monitoring phosphorylation of the physiological substrate MKK7 (MAP2K7, Dual specificity mitogen-activated protein kinase kinase 7). Phosphorylation was detected by a TR-FRET system whereby His-tagged MKK7 was labeled by a XL665-labeled anti-His antibody (FRET acceptor, emission 665 nm). LZK phosphorylates MKK7 at T275/S277 which were detected by an Eu-labeled anti-phospho-MKK7 (T275/S277) antibody (FRET donor, excitation 340 nm). Phosphorylation of MKK7 results in an increased TR-FRET signal (Ratio XL665-channel/Eu-channel) and inhibition of enzymatic activity of LZK decreases the TR-FRET signal.
Assay Protocol for 384 low volume MTP format: 1 μl of test compound was pipetted into test plate; +5 μl LZK solution (10 nM LZK, catalytic domain, Carna Biosiences in assay buffer); +5 μl substrate solution (15 nM MKK7, LDB; 15 μM ATP, in assay buffer); 90 min incubation at RT; +5 μl detection mix (20 nM XL665-labeled anti-His antibody, Cisbio; 0.4 nM Eu-labeled anti-phospho-MKK7 (T275/S277), Cisbio/Millipore in detection buffer), 16 h incubation at 32° C.; endpoint measurement BMG (HTRF).
(§1) All indicated concentrations final concentrations.
Assay buffer (384 format): 50 mM Hepes pH 7.5, 10 mM MgCl2, 1 mM EGTA, 1 mM DTT, 0.01% Triton X-100, 0.01% BSA, 1:500 Smart Block.
(§2) Detection buffer: 25 mM Tris/HCl pH 7.5, 100 mM EDTA, 100 mM NaCl, 200 mM KF, 0.01% Tween 20, 1:500 Smart Block.

[2] = biological target: DLK (Homo sapiens (Human), UniProt Q12852); test: DLK biochemical assay (TR-FRET, MKK7 phosphorylation)
Description: DLK assay is a biochemical assay format designed to screen for inhibitors of DLK. Enzymatic activity of DLK was measured by monitoring phosphorylation of the physiological substrate MKK7 (MAP2K7, Dual specificity mitogen-activated protein kinase kinase 7). Phosphorylation was detected by a TR-FRET system whereby His-tagged MKK7 was labeled by a XL665-labeled anti-His antibody (FRET acceptor, emission 665 nm). DLK phosphorylates MKK7 at T275/S277, which was detected by an Eu-labeled anti-phospho-MKK7 (T275/S277) antibody (F RET donor, excitation 340 nm). Phosphorylation of MKK7 results in an increased TR-FRET signal (Ratio XL665-channel/Eu-channel) and inhibition of enzymatic activity of DLK decreases the TR-FRET signal.
Assay Protocol for 1536 MTP format: test compounds were predispensed (60 nl) in test plates; +3 μl DLK solution (10 nM DLK, catalytic domain, Carna Biosiences, 0.6 mM DTT in assay buffer); +2 μl substrate solution (15 nM MKK7, LDB; 60 μM ATP; 0.4 mM DTT in assay buffer); 90 min incubation at RT; +2 μl detection mix (5 nM XL665-labeled anti-His antibody, Cisbio; 0.1 nM Eu-labeled anti-phospho-MKK7 (T275/S277), Cisbio/Millipore in detection buffer); 16 h incubation at 37° C.; endpoint measurement BMG (HTRF).
Assay Protocol for 384 low volume MTP format: 1 μl of test compounds were pipetted into test plate; +5 μl DLK solution (10 nM DLK, catalytic domain, Carna Biosiences in assay buffer); +5 μl substrate solution (15 nM MKK7, LDB; 60 μM ATP, in assay buffer); 90 min incubation at RT; +9 μl detection mix (20 nM XL665-labeled anti-His antibody, Cisbio; 0.4 nM Eu-labeled anti-phospho-MKK7 (T275/S277), Cisbio/Millipore in detection buffer); 16 h incubation at 4° C.; endpoint measurement BMG (HTRF).
as §1
Assay buffer (384 format): 50 mM Hepes pH 7.5, 10 mM MgCl2, 1 mM EGTA, 1 mM DTT, 0,01% Triton X-100, 0.01% BSA, 1:500 Smart Block.
as §2

Chain of DLK (Q12852 1-520): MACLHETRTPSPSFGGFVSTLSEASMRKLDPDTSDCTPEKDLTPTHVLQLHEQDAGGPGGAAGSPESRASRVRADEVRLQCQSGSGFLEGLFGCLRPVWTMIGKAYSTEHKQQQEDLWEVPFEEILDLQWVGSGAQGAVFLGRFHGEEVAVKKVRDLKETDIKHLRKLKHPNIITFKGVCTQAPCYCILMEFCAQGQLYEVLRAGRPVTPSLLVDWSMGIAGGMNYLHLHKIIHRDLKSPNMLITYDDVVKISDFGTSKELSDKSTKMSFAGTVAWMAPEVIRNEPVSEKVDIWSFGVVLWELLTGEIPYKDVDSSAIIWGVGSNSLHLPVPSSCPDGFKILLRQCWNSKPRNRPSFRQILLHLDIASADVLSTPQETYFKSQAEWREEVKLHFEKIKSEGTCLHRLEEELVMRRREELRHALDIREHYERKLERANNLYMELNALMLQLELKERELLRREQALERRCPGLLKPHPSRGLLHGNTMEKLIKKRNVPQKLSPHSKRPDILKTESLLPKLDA
Chain of LZK (O43283 168-409): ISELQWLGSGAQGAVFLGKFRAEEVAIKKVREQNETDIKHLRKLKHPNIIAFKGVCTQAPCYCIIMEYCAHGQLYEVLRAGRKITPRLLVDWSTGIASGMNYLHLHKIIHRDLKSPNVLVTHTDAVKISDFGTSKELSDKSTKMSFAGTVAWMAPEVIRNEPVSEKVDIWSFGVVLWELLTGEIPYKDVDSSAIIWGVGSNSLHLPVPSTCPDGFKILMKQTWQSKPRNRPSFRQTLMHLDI

Work on CC(NC(=O)c1cc(-c2ccc3nc(N)nn3c2)cs1)c1cn[nH]c1 (stereo not drawn) [Compound 333] yielded an IC50 [1] of 6800 nM and an IC50 [2] of 490 nM.
For CC(NC(=O)c1cc(-c2ccc3nc(N)nn3c2)cs1)c1ccc(OCC(F)F)cc1 (stereo not drawn) [Compound 357], the IC50 [1] was > 30000 nM and the IC50 [2] was 210 nM.
Nc1nc2ccc(-c3csc(C(=O)NC4CCCc5cc(F)ccc54)c3)cn2n1 (stereo not drawn) [Compound 318] showed an IC50 [1] of 1700 nM and an IC50 [2] of 130 nM.
CC(C)NC(=O)c1cc(-c2csc(C(=O)NCC3CC3)c2)cn2nc(N)nc12 [Compound 128] was tested, and the IC50 [1] was 620 nM and the IC50 [2] was 110 nM.
Work on C[C@H](NC(=O)c1cc(-c2cc(C(=O)N[C@H]3CCOC3)c3nc(N)nn3c2)cs1)c1ccc(C(F)(F)F)cc1 [Compound 105] yielded an IC50 [1] of 550 nM and an IC50 [2] of 20 nM.
COc1ccc(C(C)(C)NC(=O)c2cc(-c3cc(C(=O)NC(C)C)c4nc(N)nn4c3)cs2)cc1 [Compound 124] was tested, and the IC50 [1] was 330 nM and the IC50 [2] was 17 nM.
CC[C@H](NC(=O)c1cc(-c2cc(C(=O)N[C@@H](C)CO)c3nc(N)nn3c2)cs1)c1ccccc1 [Compound 77] was tested, and the IC50 [1] was 36 nM and the IC50 [2] was 1.8 nM.
CC[C@H](NC(=O)c1cc(-c2ccc3nc(N)nn3c2)cs1)c1ccc(F)cc1 [Compound 319] showed an IC50 [1] of 1700 nM and an IC50 [2] of 120 nM.
Work on COc1cccc(CNC(=O)c2cc(-c3ccc4nc(N)nn4c3)cs2)n1 [Compound 254] yielded an IC50 [1] of 10000 nM and an IC50 [2] of 1000 nM.
COc1cccc(C(C)(C)NC(=O)c2cc(-c3cc(C(=O)NC(C)C)c4nc(N)nn4c3)cs2)c1 [Compound 125] gave an IC50 [1] of 220 nM and an IC50 [2] of 18 nM.
In the case of Cc1nc(C(C)NC(=O)c2cc(-c3ccc4nc(N)nn4c3)cs2)sc1C (stereo not drawn) [Compound 334], the IC50 [1] is reported as 5800 nM and the IC50 [2] is reported as 400 nM.
Nc1nc2ccc(-c3csc(C(=O)Nc4ccccc4OC(F)F)c3)cn2n1 [Compound 288] was tested, and the IC50 [1] was 20000 nM and the IC50 [2] was 2400 nM.
In the case of CC[C@H](NC(=O)c1cc(-c2cc(C(=O)NC(C)C)c3nc(N)nn3c2)cs1)c1ccc(F)cc1 [Compound 108], the IC50 [1] is reported as 25 nM and the IC50 [2] is reported as 4 nM.
Nc1nc2ccc(-c3csc(C(=O)NCc4ccc(CN5CCOCC5)cc4)c3)cn2n1 [Compound 342] gave an IC50 [1] of 17000 nM and an IC50 [2] of 520 nM.
In the case of Nc1nc2ccc(-c3csc(C(=O)N[C@@H](CCO)c4ccc(F)cc4)c3)cn2n1 [Compound 341], the IC50 [1] is reported as 5100 nM and the IC50 [2] is reported as 230 nM.
Work on COc1cccc(CNC(=O)c2cc(-c3ccc4nc(N)nn4c3)cs2)c1 [Compound 182] yielded an IC50 [1] of 25000 nM and an IC50 [2] of 133 nM.
For CCNC(=O)c1cc(-c2ccc3nc(N)nn3c2)cs1 [Compound 270], the IC50 [1] was > 30000 nM and the IC50 [2] was 3500 nM.
For C[C@@H](CO)NC(=O)c1cc(-c2csc(C(=O)NCc3ccc(F)cc3)c2)cn2nc(N)nc12 [Compound 30], the IC50 [1] was 45 nM and the IC50 [2] was 16 nM.
With Nc1nc2ccc(-c3csc(C(=O)NCc4cccc(OCC(F)(F)F)c4)c3)cn2n1 [Compound 204] the IC50 [1] was > 30000 nM and the IC50 [2] was 300 nM.
Compound CN1CCO[C@H](CNC(=O)c2cc(-c3ccc4nc(N)nn4c3)cs2)C1 [Compound 214] has an IC50 [1] of 25000 nM and an IC50 [2] of 1750 nM.
In the case of Nc1nc2c(C(=O)NC3COC3)cc(-c3csc(C(=O)NCc4ccc(F)cc4)c3)cn2n1 [Compound 74], the IC50 [1] is reported as 5600 nM and the IC50 [2] is reported as 320 nM.
With Cc1csc(CNC(=O)c2cc(-c3ccc4nc(N)nn4c3)cs2)n1 [Compound 240] the IC50 [1] was 6300 nM and the IC50 [2] was 640 nM.
For CCNC(=O)c1cc(-c2csc(C(=O)N[C@@H](CC)c3ccccc3)c2)cn2nc(N)nc12 [Compound 82], the IC50 [1] was 455 nM and the IC50 [2] was 12.5 nM.
Compound Cc1cccc(C)c1NC(=O)c1cc(-c2ccc3nc(N)nn3c2)cs1 [Compound 233] has an IC50 [1] of 17000 nM and an IC50 [2] of 440 nM.
